Results: patent US11993640B2, “Treating inflammatory lung disease” (United States Government as represented by the Department …, priority 2019, dated 2024)
Non-standard residues stand in square brackets, D forms with d. Residues, ends and D or L forms follow the SMILES beside them. *: point of attachment. Phe(F5) = N[C@@H](Cc1c(F)c(F)c(F)c(F)c1F)C(=O)O; hArg = N=C(N)NCCCC[C@H](N)C(=O)O; 12Ado = NCCCCCCCCCCCC(=O)O; Nle = CCCC[C@H](N)C(=O)O; Orn = NCCC[C@H](N)C(=O)O; Abu = CC[C@H](N)C(=O)O; PhAc = O=C(Cc1ccccc1)*

Tests used:
MX-1 cells = assay: In vitro cell viability, breast cancer MX-1; format: cell-based, human; conditions: 5 μM, 72 h
Description: (§1) The inhibitory effects of the various synthesized GHRH antagonists were tested in cell proliferation assays in various human cancer cell lines including stomach cancer (KATOIII, N87), colon cancer (HT-29), urothelial cancer (J82, RT4), pancreatic cancer (PANC-1, CFPAC-1), prostatic cancer (PC3), breast cancer (MX-1, HCC1806), ovarian cancer (SK-OV-3, OVCAR-3) and lung cancer (HCC827, H460).
(§2) Cell culture. Human cancer cell lines including pancreatic (PANC-1 and CFPAC-1), lung (HCC827 and H460), stomach (NCI-N87 and KATOIII), urothelial (J82, RT4), prostatic (PC3), breast (MX-1 and HCC 1806), colorectal (HT-29), and ovarian (SK-OV-3 and OVCAR-3) were obtained from the American Type Culture Collection (ATCC) and cultured at 37° C. in a humidified 95% air/5% CO2 atmosphere in the medium recommended by ATCC.
(§3) In vitro cell viability. Cell viability was analyzed as follows: cancer cells including pancreatic (PANC-1 and CFPAC-1), lung (HCC827 and H460), stomach (NCI-N87 and KATOIII), urothelial (J82, RT4), prostatic (PC3) and breast (MX-1 and HCC 1806), colorectal (HT-29) and ovarian (SK-OV-3 and OVCAR-3) were grown on 96 well plates to ˜60% confluence, the cells were starved for 24 h in culture medium containing 0.5% FBS. Cells were then treated with GHRH antagonists MIA602 AVR compounds at concentrations of 1, 2.5 or 5 μM, or vehicle (0.1% DMSO) in quintuplicates for 72 hours. The medium was replaced every 48 hours. Cell viability was measured using CellTiter 96 aqueous one solution kit (Promega). Inhibitory effects of tested AVR compounds in comparison to that of MIA602 are presented as inhibitory potency.
Inhibitory effects of selected AVR compounds in comparison to that of MIA602 are presented as inhibitory potency (e.g., percentage of inhibition). […] The cell lines tested including lung cancer HCC827 (FIG. 2A), pancreatic cancer CFPAC-1 (FIG. 2B), stomach cancer N87 (FIG. 2C), colon cancer HT-29 (FIG. 2D), breast cancers MX-1 and HCC1806 (FIGS. 2E, F). Based on the results of cell proliferation assay after cancer cells were treated with antagonist at concentration of 5 μM for 72H, the relative inhibitory potency of AVR antagonists in comparison to MIA-602 is summarized in Table 3 A and B. Over 60 AVR compounds were tested in 12 cancer cell lines.
Based on the results of cell proliferation assay after cancer cells were treated with antagonist at concentration of 5 µM for 72H, * at concentration of 2 µM for 72 H.

OVCAR-3 cells = assay: In vitro cell viability, ovarian cancer OVCAR-3; format: cell-based, human; conditions: * at concentration of 2 μM for 72 h; Table 3B
Description: as §1, §2
(§4) In vitro cell viability. Cell viability was analyzed as follows: cancer cells including pancreatic (PANC-1 and CFPAC-1), lung (HCC827 and H460), stomach (NCI-N87 and KATOIII), urothelial (J82, RT4), prostatic (PC3) and breast (MX-1 and HCC 1806), colorectal (HT-29) and ovarian (SK-OV-3 and OVCAR-3) were grown on 96 well plates to ˜60% confluence, the cells were starved for 24 h in culture medium containing 0.5% FBS. […] Cell viability was measured using CellTiter 96 aqueous one solution kit (Promega). […]

HT-29 xenograft = assay: Xenograft tumor growth in nude mice, colon cancer HT-29; format: in vivo; conditions: Panel G, 6 weeks, 5 μg/day s.c.
Description: (§5) The peptides' activity was compared with GHRH antagonist MIA-602. All statistical analyzses were performed from comparing GHRA antagonists to non-treated tumor (control).
(§6) Peptides and chemicals. GHRH antagonists MIA-602 and AVR-GHRH antagonists (see Table 2 above) were synthesized by solid phase methods and purified by HPLC. The peptides were dissolved in DMSO and further diluted in 10% 1, 2-propanediol. The final concentration of peptides was 50 µg/ml in 10% 1, 2-propanediol containing 0.1% of DMSO.
as §2, with “(NCI-N87), prostate” for “(NCI-N87 and KATOIII), urothelial (J82, RT4), prostatic”, “brest” for “breast”, “HCC-1806),” for “HCC 1806),”
(§7) Xenograft models of human cancers in nude mice. Female athymic (NCr nu/nu) nude mice, 5-to 6-weeks-old, obtained from the Envigo labs (Tampa, FL), were housed in laminar airflow cabinets under pathogen-free conditions with a 12-h light/12-h dark schedule, and were fed autoclaved standard chow and water. To generate mice with xenografted tumors, tumor xenografts were initiated by subcutaneous (s.c.) injection of […] human cancer cells into female nude mice. After about 4 weeks the resulting tumors were dissected and collected after removing necrosis tissues. The tumors were then cut into particles with size of ˜3 mm3 and transplanted s.c. by trocar needle into experimental animals. When tumors grew to the size of 50-60 mm3 (by volume), mice were randomized into groups and treated daily for 4-8 weeks by subcutaneous administration of 5 μg of GHRH antagonists MIA-602 or AVR-compounds (2-10 μg as indicated), or vehicle solutions (0.1% DMSO in 10% 1, 2-propanediol) respectively. Tumor sizes were measured weekly.
(§8) Statistical analysis. One-way ANOVA followed by Bonferroni comparison were performed. Data are expressed as Mean±SEM. To determine statistical significance between animal groups, two-tailed Student's t-test was conducted. Differences were considered significant when p<0.05.
(§9) Results. […] FIG. 1A-N represents in vivo inhibition of tumor growth during the treatment with GHRH antagonist MIA-602 and selected AVR antagonists in nude mice xenografted with various human tumors including pancreatic cancer PANC-1 (FIG. 1A) and CFPAC-1 (FIG. 1I); lung cancer HCC827 (FIGS. 1B, C) and H460 (FIG. 1H); stomach cancer N87 (FIGS. 1D-F); colon cancer HT-29 (FIG. 1G); breast cancer MX-1 and HCC-1806 (FIGS. 1J, K); ovarian cancer SK-OV-3 and OVACAR-3 (FIGS. 1L, M) and prostate cancer PC3 (FIG. 1N). See also Table 5.

RT4 cells = assay: In vitro cell viability, urothelial cancer RT4; format: cell-based, human; conditions: 5 μM, 72 h; relative to MIA602 = 1; Table 3A
Description: as §1, §2, §3
Inhibitory effects of selected AVR compounds in comparison to that of MIA602 are presented as inhibitory potency (e.g., percentage of inhibition). […] The cell lines tested including lung cancer HCC827 (FIG. 2A), pancreatic cancer CFPAC-1 (FIG. 2B), stomach cancer N87 (FIG. 2C), colon cancer HT-29 (FIG. 2D), breast cancers MX-1 and HCC1806 (FIGS. 2E, F). […]

SK-OV-3 cells = assay: In vitro cell viability, ovarian cancer SK-OV-3; format: cell-based, human; conditions: * at concentration of 2 μM for 72 h; Table 3B
Description: as §1, §2, §4

HCC827 xenograft = assay: Xenograft tumor growth in nude mice, lung cancer HCC827; format: in vivo; conditions: Panel C, 8 weeks, 5 μg/day s.c.
Description: as §5, §6
as §2, with “(NCI-N87), prostate” for “(NCI-N87 and KATOIII), urothelial (J82, RT4), prostatic”, “brest” for “breast”, “HCC-1806),” for “HCC 1806),”
as §7, §8, §9

CCCC[C@H](NC(=O)[C@@H](NC(=O)[C@H](CC(=O)O)NC(=O)[C@H](CCC(N)=O)NC(=O)[C@H](CC(C)C)NC(=O)[C@H](CC(C)C)NC(=O)[C@H](CCCN)NC(=O)[C@H](Cc1c[nH]cn1)NC(=O)[C@H](C)NC(=O)[C@H](CO)NC(=O)[C@H](CC(C)C)NC(=O)[C@H](CCC(N)=O)NC(=O)[C@H](CC)NC(=O)[C@H](CC(C)C)NC(=O)[C@@H](NC(=O)[C@H](CCCN)NC(=O)[C@H](Cc1c[nH]cn1)NC(=O)[C@H](Cc1ccc(OC)cc1)NC(=O)[C@H](CCCCNC(=N)N)NC(=O)[C@H](C)NC(=O)[C@@H](NC(=O)[C@H](Cc1c(F)c(F)c(F)c(F)c1F)NC(=O)[C@@H](NC(=O)[C@H](C)NC(=O)[C@H](CC(=O)O)NC(=O)[C@@H](CCCNC(=N)N)NC(=O)[C@H](Cc1ccc(O)cc1)NC(=O)CCCCCCCCCCCNC(=O)Cc1ccccc1)[C@@H](C)CC)[C@@H](C)O)C(C)C)[C@@H](C)CC)C(=O)N[C@H](CCCNC(=N)N)C(=O)N[C@@H](CCCCNC(=N)N)C(N)=O [MIA-602, PhAC-Ada, Tyr D-Arg, Asp, Ala, Ile, 5FPhe, Thr, Ala, Har, Tyr(Me), His, Orn, Val, Leu, Abu, Gin, Leu, Ser, Ala, His, Orn, Leu, Leu, Gin, Asp, Ile, Nle, D-Arg, Har NH2, reference compound] ({PhAc-12Ado}-Y[dR]DAI[Phe(F5)]TA[hArg]Y(Me)H[Orn]VL[Abu]QLSAH[Orn]LLQDI[Nle][dR][hArg]-NH2)
In vitro relative inhibitory potency in comparison to MIA-602, MX-1 (MX-1 cells; Table 3B): 1
Relative inhibitory potency, Breast MX-1 (MX-1 cells; relative to MIA602 = 1, Table 3A): 1
In vitro relative inhibitory potency in comparison to MIA-602, OVCAR-3 (OVCAR-3 cells): 1
Tumor Growth % (HT-29 xenograft): 582.10%
Relative inhibitory potency, Urothelial RT4 (RT4 cells): 1
In vitro relative inhibitory potency in comparison to MIA-602, SKOV-3 (SK-OV-3 cells): 1
Tumor Growth % (HCC827 xenograft): 523.03%
% Inhibition (HCC827 xenograft; vs control): 37.8%
